Experimental findings from PMC9995496, “A screen for MeCP2-TBL1 interaction inhibitors using a luminescence-based assay” (Scientific Reports, 2023) are described below.

The assay deals with T1, MeCP2-TBL1 interaction (MeCP2-SmBiT / TBL1-LgBiT) (Mus musculus, UniProt Q9QXE7).
T1 construct: expressed in transfected cells; crude lysate used as a cell-free assay
T1 sequence (Q9QXE7 166-527): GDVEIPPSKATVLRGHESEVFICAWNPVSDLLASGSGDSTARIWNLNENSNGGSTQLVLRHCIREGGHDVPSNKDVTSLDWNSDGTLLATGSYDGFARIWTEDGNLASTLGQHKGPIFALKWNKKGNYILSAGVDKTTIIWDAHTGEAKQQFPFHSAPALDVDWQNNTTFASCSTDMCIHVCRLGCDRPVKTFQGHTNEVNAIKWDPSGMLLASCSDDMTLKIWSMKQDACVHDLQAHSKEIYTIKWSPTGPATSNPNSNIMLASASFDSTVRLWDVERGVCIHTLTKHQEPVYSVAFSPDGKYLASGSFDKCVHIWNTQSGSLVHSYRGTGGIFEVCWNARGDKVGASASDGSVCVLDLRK
The experiment in a line: MeCP2-TBL1 NanoLuc luciferase complementation assay (cell-free, extracts of transfected HEK293 cells).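 Also: each compound tested at 20 µM final concentration.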 The class given is binding, human. In outline:
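Cell-free split NanoLuc: lysate of HEK293 cells co-expressing the MeCP2 C-terminal half-SmBiT and TBL1 WD domain-LgBiT, mixed 1:1 with furimazine. After 30 min at room temperature, luminescence was plate-median normalized.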

[1] abbreviates: primary screen of Asinex library, single well per compound.
Setting [2] is: primary screen of the Asinex library, sheet "Sargen output Asinex library", one well per compound.
Where [3] appears, read: primary screen of the Asinex library, sheet "Sargen output Asinex library", one well per compound, Batch Ref. 1.

For the molecule `CN1C(=O)C2(CCN(C(=O)c3cccc(Nc4ncccn4)c3)CC2)CC1Cc1ccc(F)cc1` (stereo not drawn) [BDH_32371589], the Inhibition percent under setting [1] came out at 8.79.

Take `O=C1COC2(CCCN(C(=O)c3ccccc3Cn3ccnc3)CC2)CN1CCc1ccccc1` (stereo not drawn) [BDH_32371928]: under setting [1], the Inhibition percent is reported as -2.75. For the molecule `O=C(c1ccccc1CN1CCOCC1)N1CCOCC(Cc2ccc3ccncc3c2)C1` (stereo not drawn) [BDH_32372076], the Inhibition percent under setting [2] is given as -4.00%.

On to `CC1(C(=O)N2CCOCC(Cc3ccc4ncccc4c3)C2)CCN(C(=O)c2ccccc2)CC1` (stereo not drawn) [BDH_32372082], for which, under setting [3], the Inhibition percent was found to be 0.77%.

Consider `COc1ccc(C2(C(=O)N3CCC4(CC3)CC(Oc3ccccc3F)CO4)CCOCC2)cc1` (stereo not drawn) [BDH_32372513], for which the Inhibition percent under setting [2] is given as -1.24%. In the case of `Cc1nccn1Cc1ccccc1C(=O)N1C[C@@H](c2cccc(F)c2)[C@@]2(CCCCC(=O)N2)C1` [BDH_32372714], the Inhibition percent under setting [1] is -2.77.

As for `O=C1CCCN1CCOc1ccccc1C(=O)N1CCCC(Cc2cn3ccnc3cn2)CC1` (stereo not drawn) [BDH_32372856], the Inhibition percent under setting [2] is -2.49%. Consider `CNC(=O)c1cccc(C2CN(C(=O)c3ccc(OCc4ccccn4)c(OC)c3)CCN2C)c1` (stereo not drawn) [BDH_32373002], for which the Inhibition percent under setting [2] is reported as 4.71%. With `COCC(=O)N1CCC(C)(C(=O)N2CCCC2c2ccnc(-c3cccc(Cl)c3)n2)CC1` (stereo not drawn) [BDH_32373816], under setting [1], the Inhibition percent worked out at 0.44. Take `Cn1cc(-c2cc(C(=O)N3CCCC(c4cccc(-c5cccc(C(N)=O)c5)n4)C3)ccn2)cn1` (stereo not drawn) [BDH_32374050]: the Inhibition percent under setting [2] is reported as -6.35%. Turning to `O=C(c1ccccc1Cn1ccnc1)N1CCOCC2(C1)CN(c1ccc(Cl)cc1)C(=O)O2` (stereo not drawn) [BDH_32374184], the Inhibition percent under setting [1] was determined as 1.12. Take `Cn1ccc(C(=O)Nc2ccccc2C(=O)N2CCC3(CN(Cc4ccccc4)C(=O)O3)C2)n1` (stereo not drawn) [BDH_32374198]: under setting [2], the Inhibition percent is given as -4.02%. Consider `CN1C(=O)C2(CCN(C(=O)C3(c4ccccc4)CCOCC3)CC2)CC1Cc1ccccc1` (stereo not drawn) [BDH_32374590], for which the Inhibition percent under setting [3] was 0.40%.

Take `C[C@]12C[C@@H](Cc3ccccc3)N(C(=O)c3cccc(CN4CCCC4=O)c3)[C@H]1CCCC(=O)N2` [BDH_32374892]: the Inhibition percent under setting [3] is recorded as -1.59%. As to `COCC(=O)N1CCC(C)(C(=O)N2CCC[C@]3(C[C@@H](Oc4cccc(F)c4)CO3)C2)CC1` [BDH_32375031], the Inhibition percent under setting [2] is on record as -4.50%. For the molecule `C[C@@]12C[C@H]3[C@H](Cc4ccccc4)N[C@@H]1CCCC[C@@H]2N3C(=O)c1ccnc(Cc2ccccc2)c1` [BDH_33392602], under setting [2], the Inhibition percent was found to be 3.55%.

Regarding `O=C(COc1ncnc2ccccc12)N1CCC[C@@]2(C[C@@H](Oc3ccc(F)c(Cl)c3)CO2)C1` [BDH_33516387], the Inhibition percent under setting [1] is reported as 6.08. As to `COc1cccc(-c2cc(C(=O)N3CCC[C@@]4(C[C@@H](Oc5cccc(Cl)c5)CO4)C3)[nH]n2)c1` [BDH_33516566], the Inhibition percent under setting [2] is recorded as 6.38%. Turning to `CC(C)CN1C(=O)C2(CCN(C(=O)Cn3cccnc3=O)CC2)CC1Cc1ccc(F)cc1` (stereo not drawn) [BDH_33517008], the Inhibition percent under setting [3] is given as -0.88%. As for `O=C(c1cc(-c2cccc(F)c2)no1)N1CCC[C@@]2(C[C@@H](Oc3ccccc3F)CO2)C1` [BDH_33517958], under setting [2], the Inhibition percent is on record as 4.74%. As to `COc1ccc([C@H]2CN(C)[C@@H]3CCN(C(=O)c4ccnc(Cc5ccccc5OC)c4)C[C@H]23)cc1` [BDH_33520255], the Inhibition percent under setting [2] was -0.37%. Turning to `COc1ccccc1Cc1ccc(C(=O)N2CCCC2c2cncc(-c3nccn3C)n2)cn1` (stereo not drawn) [BDH_33521295], the Inhibition percent under setting [3] is given as -3.44%. Consider `COc1ccccc1Cc1ccc(C(=O)N2CCCC2c2cncc(-c3nc(C)c[nH]3)n2)cn1` (stereo not drawn) [BDH_33521296], for which the Inhibition percent under setting [2] was -4.74%. Take `COc1ccccc1Cc1ccc(C(=O)N2CCC(c3cccc(-c4cncn4C)n3)CC2)cn1` [BDH_33521315]: under setting [3], the Inhibition percent is listed as 0.21%. In the case of `COc1ccccc1Cc1ccc(C(=O)N2CCCC2c2cccc(-c3cncn3C)n2)cn1` (stereo not drawn) [BDH_33521317], under setting [2], the Inhibition percent was -1.25%. For the molecule `CNC(=O)c1cnn2c(C3CCCN(C(=O)c4ccnc(Cc5cccc(F)c5)c4)C3)ccnc12` (stereo not drawn) [BDH_33521351], the Inhibition percent under setting [3] was -0.09%. For the molecule `Cc1c[nH]c(-c2nccnc2CC2CCCN(C(=O)c3ccnc(Cc4cccc(F)c4)c3)C2)n1` (stereo not drawn) [BDH_33521378], the Inhibition percent under setting [1] was -5.26. For the molecule `Cc1c[nH]c(-c2cncc(C3CCCN(C(=O)c4ccnc(Cc5cccc(F)c5)c4)C3)n2)n1` (stereo not drawn) [BDH_33521385], under setting [2], the Inhibition percent is given as -2.90%.

In the case of `Cn1ccnc1-c1nccnc1C1CCN(C(=O)c2ccnc(Cc3cccc(F)c3)c2)CC1` [BDH_33521386], under setting [3], the Inhibition percent is -2.61%. `NC(=O)c1cc(CC2CCCN(C(=O)c3ccnc(Cc4ccccc4)c3)CC2)ncn1` (stereo not drawn) [BDH_33521416]: under setting [2], the Inhibition percent is recorded as -0.17%. Turning to `NC(=O)c1cnn2c(C3CCCCN3C(=O)c3ccnc(Cc4ccccc4)c3)ccnc12` (stereo not drawn) [BDH_33521422], the Inhibition percent under setting [3] is -0.87%. Still for that read-out and setting: the same measure for `CNC(=O)c1cnn2c(C3CCCCN3C(=O)c3ccnc(Cc4ccccc4F)c3)ccnc12` (stereo not drawn) [BDH_33521663]: -0.23%; for `O=C(c1ccnc(Cc2ccccc2F)c1)N1CCC(Cc2nccnc2-c2ncc[nH]2)CC1` [BDH_33521693]: 0.97%; for `Cc1c[nH]c(-c2cncc(CC3CCN(C(=O)c4ccc(Cc5ccccc5F)nc4)CC3)n2)n1` [BDH_33521764]: 0.73%. The same measure, in the same setting: the same measure for `COc1ccccc1Cc1cc(C(=O)N2CCCC2c2cncc(-c3nc(C)c[nH]3)n2)ccn1` (stereo not drawn) [BDH_33522145]: 0.17%. Turning to `COc1ccccc1Cc1cc(C(=O)N2CCC(c3nccnc3-c3nc(C)c[nH]3)CC2)ccn1` [BDH_33522161], the Inhibition percent under setting [3] is 6.35%. On the same count and under the same terms, the result for `COc1cccc(N2CCC(O)(CN3C[C@@H](c4cccc(F)c4)[C@@]4(CCCC(=O)N4)C3)CC2)c1` [BDH_33611042] reads 2.32%. Turning to `COc1ccc([C@@H]2C[C@]3(C)NC(=O)CCC[C@@H]3N2CC2(O)CCN(c3cccc(OC)c3)CC2)cc1` [BDH_33611075], the Inhibition percent under setting [2] was determined as 1.71%.

For the molecule `COc1ccc(N2CCN(CC3(O)CCN(c4cccc(C)c4)CC3)C(C(N)=O)C2)cc1` (stereo not drawn) [BDH_33612322], under setting [3], the Inhibition percent was -0.28%. As to `COc1cccc([C@@H]2C[C@]3(C)NC(=O)CCCC[C@@H]3N2CC(=O)Nc2ccc(N3CCCC3)cc2)c1` [BDH_33614614], the Inhibition percent under setting [1] was -1.03. On to `COc1ccc([C@@H]2[C@H]3CCCC[C@@]3(O)CCN2CC(=O)Nc2ccc(N3CCOCC3)cc2)cc1` [BDH_33614948], for which, under setting [2], the Inhibition percent amounted to 1.72%. On the same count and under the same terms, the result for `COc1cccc([C@@H]2C[C@]3(C)NC(=O)CCCC[C@@H]3N2CC(=O)Nc2ccc3[nH]c(=O)[nH]c3c2)c1` [BDH_33615500] reads -1.75%; that for `CC(=O)N[C@@H]1C[C@@H](C(=O)N(C)C)N(CC(=O)Nc2ccc3[nH]c(=O)[nH]c3c2)[C@H]1c1ccccc1` [BDH_33615574], -1.45%. On to `COc1cccc([C@@H]2C[C@]3(C)NC(=O)CCCC[C@@H]3N2CC(=O)NCCc2nc3ccccc3[nH]2)c1` [BDH_33615965], for which the Inhibition percent under setting [3] was found to be 0.09%. With `CC(=O)N1CCN(CC(=O)NCCc2nc3ccccc3[nH]2)CC1c1ccc(C(F)(F)F)cc1` (stereo not drawn) [BDH_33616082], under setting [2], the Inhibition percent is reported as -1.86%. Regarding `C[C@]12C[C@@H](Cc3ccccc3)N(CC(=O)NCCc3nc4ccccc4[nH]3)[C@H]1CCCC(=O)N2` [BDH_33616100], the Inhibition percent under setting [2] is on record as -2.04%.

Consider `CC(=O)N[C@@]12CN(CC(=O)Nc3ccc4nc(C)[nH]c4c3)CC[C@@H]1[C@@H](c1ccccc1)N(C(C)=O)C2` [BDH_33616134], for which, under setting [3], the Inhibition percent is on record as 1.14%.

`Cc1nc2ccc(NC(=O)CN3C[C@@H](c4cc(F)cc(F)c4)[C@@]4(CCCCC(=O)N4)C3)cc2[nH]1` [BDH_33616136]: the Inhibition percent under setting [1] is reported as -1.00. As for `Cc1nc2ccc(NC(=O)CN3CC[C@@]4(C)[C@@H]3CCCCC(=O)N4Cc3ccc(F)cc3)cc2[nH]1` [BDH_33616216], the Inhibition percent under setting [3] is reported as 6.38%.

Consider `CC(=O)N[C@H]1C[C@@H](C(=O)N(C)C)N(CC(=O)Nc2cccc(C(F)(F)F)c2)[C@H]1c1ccccc1` [BDH_33616368], for which the Inhibition percent under setting [2] is on record as -1.15%. On the same count and under the same terms, the same measure for `CC(=O)N[C@@]12CN(CC(=O)Nc3cccc(C(F)(F)F)c3)CC[C@@H]1[C@@H](c1ccccc1)N(C)C2` [BDH_33616433]: -0.29%. For `C[C@]12C[C@@H](Cc3ccccc3)N(CC(=O)Nc3cccc(C(F)(F)F)c3)[C@H]1CCCC(=O)N2` [BDH_33616434], the Inhibition percent under setting [3] was 6.90%.

As for `Cc1n[nH]c(C)c1NC(=O)CN1C[C@@H](c2cc(F)cc(F)c2)[C@@]2(CCCCC(=O)N2)C1` [BDH_33616713], the Inhibition percent under setting [1] was -0.00541. As to `NC(=O)C1CN(Cc2ccccc2)CCN1CC(=O)Nc1ccccc1C(F)(F)F` (stereo not drawn) [BDH_33617130], the Inhibition percent under setting [2] is recorded as -2.26%. `C[C@]12C[C@@H](c3ccccc3)N(CC(=O)Nc3ccc4c(c3)OCCO4)[C@H]1CCCCCN2` [BDH_33617257]: the Inhibition percent under setting [1] is on record as -2.26.

As to `CC(=O)N[C@H]1C[C@@H](C(=O)N(C)C)N(CC(=O)Nc2ccc3c(c2)OCCO3)[C@H]1c1ccccc1` [BDH_33617336], the Inhibition percent under setting [1] is on record as -1.52. On to `CC(=O)N[C@@]12CN(C)CC[C@@H]1[C@@H](c1ccccc1)N(CC(=O)Nc1ccc3c(c1)OCCO3)C2` [BDH_33617398], for which, under setting [2], the Inhibition percent is given as -1.20%.
